Source: US7947668B2, “Aminoalkyl sterol compounds having an anti-tumoral and neuroprotective activity” (Institut National de la Sante et de la Recherche Medicale, priority 2002, dated 2011)

Columns and labels:
Type in all cases: cell-based, human
A549 cells = assay: Actin and tubulin skeleton on treated A549 cells (fluorescence microscopy)
Description: A549 cells were treated with the compound of example 9 according to the protocol described in detail in example 55; they are inoculated onto glass slides placed at the bottom of six-well culture dishes (NUNC) at a density of 50 000 cells per well in a nutrient medium of “RPMI 1640” type sold by the company “Gibco BRL”, supplemented with 10% fetal calf serum. The cells are then fixed with 3% paraformaldehyde solution and are permeabilized with a detergent solution containing 0.1% “Triton-X-100” in PBS. The actin skeleton of the treated cells was observed by labeling the cells with phalloidin-FITC.
In this case, the A549 cells are labeled with an anti-γ-tubulin antibody and developed with an anti-IgG-FITC antibody.

U-937 cells = assay: Production of IL-12p70 and IL-10 by the dendritic cells (ELISA)
Description: The culture supernatants are frozen at a temperature of −80° C. until the time of testing for the presence of cytokines. The presence of IL-12p70 and IL-10 is measured using ELISA kits obtained from “Endogen” (Woburn, Mass., USA).
This phenomenon continues for the two weeks of treatment.

[1] = tested on: U937 cells expressing RCPG-HA; assay: Overexpression of a membrane receptor in the U937 tumoral cell line; conditions: 10 nM, 12 hours, 48 hours after transfection
Description: U937 cells were cultured in an “RPMI 1640” medium sold by the company “Gibco BRL”. A plasmid coding for an […] membrane receptor belonging to the superfamily of protein G-coupled receptors and containing an HA label is generated.
The U937 cells expressing the receptors are generated by transfection using the “lipofectamine” reagent according to the manufacturer's instructions.
48 hours after transfection, the transfected cells were treated with 10 nM of compound according to example 9 for 12 hours.
These cells were fixed in order to be examined by fluorescence microscopy.

CC(C)CCC[C@@H](C)[C@H]1CC[C@H]2[C@@H]3C[C@@H](NCCc4c[nH]cn4)[C@@]4(O)C[C@@H](O)CC[C@]4(C)[C@H]3CC[C@]12C [Example 9, cholestane-3β,5α-diol-6β-N-[2-ethylamino(1H-imidazol-4-yl)]]
actin skeleton of treated A549 cells (phalloidin-FITC) (A549 cells; FIG. 12 photograph 2): appearance of refringent vesicles, which are surrounded by actin
tubulin skeleton of treated A549 cells (anti-γ-tubulin antibody) (A549 cells; FIG. 13 photograph 2): presence of intracytoplasmic vacuoles, which are not surrounded with γ-tubulin
production of the p70 subunit of IL-12 (U-937 cells; from 36 hours after the start of the treatment, continues for the two weeks of treatment): stimulates the production of the p70 subunit of IL-12
transcription/production of IL-10 (U-937 cells; treatments extending over a period of two weeks): does not stimulate the transcription of IL-10
expression of RCPG-HA membrane receptor (immunofluorescence) [1]: expression of a membrane receptor of RCPG type
